From patent US7842316B2, “Cosmetic compositions having extracts of Amomum melegueta and methods of treating skin” (Avon Products, Inc., priority 2007, dated 2010)

Molecular target: T1, COX-2 (Ovis aries, UniProt P79208)
T1 sequence (P79208 17-603): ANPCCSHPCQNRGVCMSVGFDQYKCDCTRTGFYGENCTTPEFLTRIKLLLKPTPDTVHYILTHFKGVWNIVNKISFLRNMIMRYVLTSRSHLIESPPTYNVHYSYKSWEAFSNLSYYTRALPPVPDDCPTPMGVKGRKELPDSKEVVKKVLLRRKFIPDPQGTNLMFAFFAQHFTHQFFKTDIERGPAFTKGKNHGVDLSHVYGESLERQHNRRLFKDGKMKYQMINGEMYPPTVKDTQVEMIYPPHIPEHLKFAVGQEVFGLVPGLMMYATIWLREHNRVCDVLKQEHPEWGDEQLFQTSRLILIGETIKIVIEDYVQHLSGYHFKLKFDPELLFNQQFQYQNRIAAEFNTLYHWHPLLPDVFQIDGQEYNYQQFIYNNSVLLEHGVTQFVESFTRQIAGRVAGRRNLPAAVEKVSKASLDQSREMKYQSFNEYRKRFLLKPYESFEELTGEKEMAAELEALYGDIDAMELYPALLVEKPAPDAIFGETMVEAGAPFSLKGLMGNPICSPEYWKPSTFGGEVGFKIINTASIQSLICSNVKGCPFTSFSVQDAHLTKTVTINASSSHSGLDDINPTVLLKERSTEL
Assay: colorimetric COX (ovine) inhibitor screening assay
Type: biochemical
Conditions: Vioxx used as positive control; concentration not given

- level of inhibition (COX-2 inhibitory activity), positive control: 90%
Compound: CS(=O)(=O)c1ccc(C2=C(c3ccccc3)C(=O)OC2)cc1 [Vioxx]
